# Source: patent US10934302B1, “SHP2 phosphatase inhibitors and methods of use thereof” (Relay Therapeutics, Inc., priority 2018, dated 2021)
# pIC50: −log10 of the molar value.
# Molecular target: SHP2 (Homo sapiens (Human), UniProt Q06124)
# Experiment: SHP2 allosteric inhibition assay (DiFMUP prompt fluorescence)
# Format: biochemical
# Settings: 0.25 nM SHP2 activated with 0.5 μM peptide IRS1_pY1172(dPEG8)pY1222; substrate DiFMUP
row,SMILES,pIC50
1,"N[C@@H]1c2ccccc2CC12CCN(c1cnc(N3CCC[C@H]3c3ccccc3)cn1)CC2 (racemic) [Example 165, (3S)-1′-{5-[(2S)-2-phenylpyrrolidin-1-yl]pyrazin-2-yl}-1,3-dihydrospiro[indene-2,4′-piperidin]-3-amine]",< 5.00
2,"N[C@@H]1c2ccccc2CC12CCN(c1cnc(N3CCCC[C@@H]3c3ccccc3)cn1)CC2 (racemic) [Example 166, (S)-1′-(5-((R)-2-phenylpiperidin-1-yl)pyrazin-2-yl)-1,3-dihydrospiro[indene-2,4′-piperidin]-1-amine]",≥ 7.30
3,N[C@@H]1c2ccccc2CC12CCN(c1cnc(N3CCCC[C@H]3c3ccccc3)cn1)CC2 (racemic) [Example 176],< 5.00
4,Cn1c(N2CCC3(CC2)Cc2ccccc2[C@H]3N)nc2[nH]nc(N3CCCCC3)c2c1=O (racemic) [Example 200],≥ 7.30
5,"Nc1nccc(Oc2n[nH]c3nc(N4CCC5(CC4)Cc4ccccc4[C@@H]5N)cnc23)c1Cl (single isomer, unassigned) [Example 136]",≥ 7.30
6,"Nc1nccc(Oc2n[nH]c3nc(N4CCC5(CC4)Cc4ccccc4[C@H]5N)cnc23)c1Cl (single isomer, unassigned) [Example 137]",≥ 7.30
7,"C[C@@H](O)c1nc2c(N3CCCc4ncccc43)n[nH]c2nc1N1CCC2(CC1)Cc1ccccc1[C@H]2N (single isomer, unassigned) [Example 141]",≥ 7.30
8,"C[C@H](O)c1nc2c(N3CCCc4ncccc43)n[nH]c2nc1N1CCC2(CC1)Cc1ccccc1[C@H]2N (single isomer, unassigned) [Example 142]",≥ 7.30
9,"N[C@H]1c2ccccc2C[C@@]12CC=C(c1cnc3c(N4CCCc5ncccc54)n[nH]c3n1)CC2 (single isomer, unassigned) [Example 172]",5.00 to 6.00
10,"N[C@@H]1c2ccccc2C[C@@]12CC=C(c1cnc3c(N4CCCc5ncccc54)n[nH]c3n1)CC2 (single isomer, unassigned) [Example 173]",< 5.00
11,"N[C@H]1c2ccccc2C[C@]12CC[C@H](c1cnc3c(N4CCCc5ncccc54)n[nH]c3n1)CC2 (single isomer, unassigned) [Example 188, (1s, 1′R, 4S)-4-(3-(3,4-dihydro-1,5-naphthyridin-1(2H)-yl)-1H-pyrazolo[3,4-b]pyrazin-6-yl)-1′,3′-dihydrospiro[cyclohexane-1,2′-inden]-1′-amine]",< 5.00
12,"N[C@H]1c2ccccc2C[C@]12CC[C@H](c1cnc(Sc3ccnc(Cl)c3Cl)cn1)CC2 (single isomer, unassigned) [Example 276, (1s, 3′R, 4S)-4-{5-[(2,3-dichloropyridin-4-yl)sulfanyl]pyrazin-2-yl}-1′,3′-dihydrospiro[cyclohexane-1,2′-inden]-3′-amine]",≥ 7.30

# More lines, now with the values ahead:
row,pIC50,SMILES
1,6.00 to 7.30,"C[C@@H](C#N)N(C)c1n[nH]c2nc(N3CCC4(CC3)Cc3ccccc3[C@H]4N)cnc12 (racemic) [Example 150, (S)-2-((6-((S)-1-amino-1,3-dihydrospiro[indene-2,4′-piperidin]-1′-yl)-1H-pyrazolo[3,4-b]pyrazin-3-yl)(methyl)amino)propanenitrile]"
2,≥ 7.30,"C[C@@H](C(N)=O)N(C)c1n[nH]c2nc(N3CCC4(CC3)Cc3ccccc3[C@H]4N)cnc12 (racemic) [Example 151, (2S)-2-({6-[(3S)-3-amino-1,3-dihydrospiro[indene-2,4′-piperidin]-1′-yl]-1H-pyrazolo[3,4-b]pyrazin-3-yl}(methyl)amino)propanamide]"
3,≥ 7.30,"Cc1cnc(CO)c(N2CCC3(CC2)Cc2ccccc2[C@@H]3N)n1 (single isomer, unassigned) [Example 121]"
4,≥ 7.30,"Cc1cnc(CO)c(N2CCC3(CC2)Cc2ccccc2[C@H]3N)n1 (single isomer, unassigned) [Example 122]"
5,≥ 7.30,"N[C@@H]1c2ccccc2CC12CCN(c1cnc(S[C@H]3CCOC3)cn1)CC2 (single isomer, unassigned) [Example 234]"
